We go through 20 molecules from patent US20170088520A1, “DEUBIQUITINASE INHIBITORS” (PharmAkea, Inc., priority 2014, published 2017).

Holding throughout (assay type): cell-based
The subject of test [1] is Mcl-1 expression in cells (NCI-H929, Z138, MM.1S, A-375). The test is described as follows: Analysis of Mcl-1 expression by Western blotting. To be noted: compound tested at 5 μM; Western blot. The protocol:
(§1) Example B-2: Analysis of Md-1 Expression and PARP Cleavage
(§2) The ability of test compounds to decrease expression of the tumor promoting protein, Mcl-1, and to induce the inactivation/cleavage of the PARP protein is evaluated in cells (NCI-H929, Z138, MM.1S, A-375) by Western blotting. Cells are plated and treated as described in the HA-Ub-VS cell labeling assay (see above). A portion of the cleared lysate (15-50 μl) is run on an SDS-polyacrylamide gel to separate proteins and then transferred to nitrocellulose. After transfer to nitrocellulose, the proteins are detected by probing the blot with anti-Mcl-1 and anti-PARP antibodies followed by secondary antibodies coupled to IRdye 800 and IRdye 680 and visualization and quantitation using a LiCor Odyssey machine. Activity of the test compound is identified as a significant decrease in Mcl-1 expression relative to the vehicle treated cells and to the appearance of a cleaved fragment of PARP relative to the vehicle-treated cells.
(§3) The following compounds were tested in the above assays at 5 μM: […]
Background: A western blot detects proteins with antibodies after separation by electrophoresis.

The target in test [2] is T1, DUB activity in cells (NCI-H929, Z138, MM.1S, A375) (Homo sapiens, UniProt Q93008).
T1 construct: endogenous in cells; host or cells: NCI-H929, Z138, MM.1S, A375
T1 sequence (Q93008 whole entry): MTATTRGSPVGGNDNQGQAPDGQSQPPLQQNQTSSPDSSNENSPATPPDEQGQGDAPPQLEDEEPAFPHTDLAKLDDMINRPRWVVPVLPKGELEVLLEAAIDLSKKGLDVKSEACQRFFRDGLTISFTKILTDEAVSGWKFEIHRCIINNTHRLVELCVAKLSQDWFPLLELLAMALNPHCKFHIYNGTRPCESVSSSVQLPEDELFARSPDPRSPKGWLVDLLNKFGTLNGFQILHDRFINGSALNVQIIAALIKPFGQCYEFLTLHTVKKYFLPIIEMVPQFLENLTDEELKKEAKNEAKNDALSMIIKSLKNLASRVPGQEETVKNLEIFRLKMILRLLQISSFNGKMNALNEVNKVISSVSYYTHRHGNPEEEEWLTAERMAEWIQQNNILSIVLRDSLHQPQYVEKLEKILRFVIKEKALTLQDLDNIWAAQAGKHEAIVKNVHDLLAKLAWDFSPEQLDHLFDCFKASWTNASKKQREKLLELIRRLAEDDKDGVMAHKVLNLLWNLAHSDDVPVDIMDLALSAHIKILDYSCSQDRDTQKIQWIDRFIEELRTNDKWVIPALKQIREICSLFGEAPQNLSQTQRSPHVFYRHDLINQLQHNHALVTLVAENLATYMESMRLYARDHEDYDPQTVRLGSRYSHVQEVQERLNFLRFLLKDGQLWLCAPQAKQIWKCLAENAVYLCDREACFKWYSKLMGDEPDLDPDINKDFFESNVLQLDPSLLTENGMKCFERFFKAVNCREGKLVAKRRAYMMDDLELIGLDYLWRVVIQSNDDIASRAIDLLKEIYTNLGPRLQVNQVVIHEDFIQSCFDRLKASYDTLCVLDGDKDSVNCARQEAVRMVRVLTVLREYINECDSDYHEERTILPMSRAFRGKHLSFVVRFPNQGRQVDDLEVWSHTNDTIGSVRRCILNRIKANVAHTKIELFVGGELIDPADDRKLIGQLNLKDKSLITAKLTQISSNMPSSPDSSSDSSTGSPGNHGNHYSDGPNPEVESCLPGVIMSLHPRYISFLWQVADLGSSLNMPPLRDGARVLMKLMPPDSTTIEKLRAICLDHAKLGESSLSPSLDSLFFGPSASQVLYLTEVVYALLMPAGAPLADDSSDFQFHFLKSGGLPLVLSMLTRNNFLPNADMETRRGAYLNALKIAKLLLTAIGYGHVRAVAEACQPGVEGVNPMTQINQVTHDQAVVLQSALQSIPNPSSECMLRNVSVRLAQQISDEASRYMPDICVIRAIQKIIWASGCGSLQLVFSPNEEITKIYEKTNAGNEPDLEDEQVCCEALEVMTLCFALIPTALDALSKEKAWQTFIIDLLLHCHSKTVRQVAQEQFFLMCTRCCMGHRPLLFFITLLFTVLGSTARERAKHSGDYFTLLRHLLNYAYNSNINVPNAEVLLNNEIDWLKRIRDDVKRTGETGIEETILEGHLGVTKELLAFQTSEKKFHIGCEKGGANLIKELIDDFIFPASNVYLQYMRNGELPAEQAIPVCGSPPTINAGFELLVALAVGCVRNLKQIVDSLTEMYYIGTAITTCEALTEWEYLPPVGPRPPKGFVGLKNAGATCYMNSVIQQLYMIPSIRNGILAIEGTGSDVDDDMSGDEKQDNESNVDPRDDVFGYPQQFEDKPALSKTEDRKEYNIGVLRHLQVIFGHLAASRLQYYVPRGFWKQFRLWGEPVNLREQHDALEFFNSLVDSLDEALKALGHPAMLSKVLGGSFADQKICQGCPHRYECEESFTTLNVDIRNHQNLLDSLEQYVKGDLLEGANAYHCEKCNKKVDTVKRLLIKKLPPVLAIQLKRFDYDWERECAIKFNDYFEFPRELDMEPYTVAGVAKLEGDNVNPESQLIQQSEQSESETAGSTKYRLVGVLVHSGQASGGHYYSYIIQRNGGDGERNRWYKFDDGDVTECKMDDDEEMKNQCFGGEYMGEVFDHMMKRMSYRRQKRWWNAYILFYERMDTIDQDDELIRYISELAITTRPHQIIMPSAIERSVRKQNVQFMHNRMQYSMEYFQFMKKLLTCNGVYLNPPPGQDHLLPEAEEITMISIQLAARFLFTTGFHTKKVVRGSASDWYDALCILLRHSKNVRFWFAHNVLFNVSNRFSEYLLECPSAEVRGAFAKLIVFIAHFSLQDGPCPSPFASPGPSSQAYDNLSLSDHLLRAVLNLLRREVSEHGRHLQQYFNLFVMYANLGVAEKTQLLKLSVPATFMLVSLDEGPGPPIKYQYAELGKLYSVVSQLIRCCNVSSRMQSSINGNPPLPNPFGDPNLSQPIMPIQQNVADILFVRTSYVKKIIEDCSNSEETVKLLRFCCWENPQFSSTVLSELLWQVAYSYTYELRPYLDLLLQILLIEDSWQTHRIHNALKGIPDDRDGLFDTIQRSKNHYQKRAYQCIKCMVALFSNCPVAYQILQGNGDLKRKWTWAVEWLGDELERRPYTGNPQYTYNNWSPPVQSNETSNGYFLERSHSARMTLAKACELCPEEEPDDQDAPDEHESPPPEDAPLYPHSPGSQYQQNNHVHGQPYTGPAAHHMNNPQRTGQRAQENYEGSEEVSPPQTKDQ
In words: HA-Ubiquitin-Vinylsulfone (HA-Ub-VS) cell labeling assay. To be noted: compound tested at 5 μM; HA-Ub-VS labeling of USP9x in cells. The protocol:
Example B-1: HA-Ubiqutin-Vinylsulfone (HA-Ub-VS) Cell Labeling
Inhibitition of DUB activity is measured in cells (NCI-H929, Z138, MM.1S, A375) using a hemaglutinin-ubiquitin-vinylsulfone (HA-Ub-VS) labeling assay. Briefly, 1-2×10^6 cells are plated in 12-well plates in 1 ml complete growth media and 250 μl of test compound in 0.5% dimethylsulfoxide (or DMSO control) is added to each well. Plates are incubated at 37° C., 5% CO2 for 2-6 hours before cells are harvested into eppendorf tubes, washed once in PBS and resuspended in 100 μl cold lysis buffer (50 mM Tris pH 8, 150 mM NaCl, 0.5% NP-40, 2 mM phenylmethylsulfonyl fluoride and complete protease inhibitor tablet). Resupended cells are frozen on dry ice, then thawed and incubated on ice for 15 minutes. Tubes are centrifuged for 10 minutes at 14,000 rpm at 4° C. and the cleared supernatants transferred to clean tubes. […] The samples are incubated 15-60 min at 37° C. before the addition of SDS gel loading buffer. Proteins are separated by SDS-PAGE, transferred to nitrocellulose and the blot probed with anti-HA antibody and anti-β-actin antibodies. The HA and β-actin antibodies are detected using secondary antibodies coupled to IRdye 800 or IRdye 680 and visualized and quantitated using the LiCor Odyssey machine.
as §3

Test [3] has as its system PARP cleavage in cells (NCI-H929, Z138, MM.1S, A-375). In words: Analysis of PARP cleavage by Western blotting. The settings on record: compound tested at 5 μM; Western blot. How it is done: as §1, §2, §3

By inhibition is commonly meant how much of the control response was suppressed. The low end stands for little suppression, the high end for strong suppression. In the case of `N#C/C(=C\c1cccc(Br)n1)C(=O)NC1(c2ccccc2)CCCC1` [Compound 1, (E)-3-(6-Bromopyridin-2-yl)-2-cyano-N-(1-phenylcyclopentyl)acrylamide], the inhibition at 5 µM in test [1] and in test [2] was at least 75% in each case. Further, the “PARP cleavage % Inhibition” value in test [3] is on record as “A (A is ≧75% inhibition)”.

As to `N#C/C(=C\c1cccc(Br)n1)C(=O)NC1(c2ccccc2)CC1` [Compound 2, (E)-3-(6-Bromopyridin-2-yl)-2-cyano-N-(1-phenylcyclopropyl)acrylamide], the inhibition at 5 µM in test [1] and in test [2] was under 25% in each case. The “PARP cleavage % Inhibition” value in test [3] was “C (C is 25% to 50% inhibition)”.

Regarding `CN(C(=O)/C(C#N)=C/c1cccc(Br)n1)C1(c2ccccc2)CCCC1` [Compound 2-82, (E)-3-(6-bromopyridin-2-yl)-2-cyano-N-methyl-N-(1-phenylcyclopentyl)acrylamide], the results for the inhibition at 5 µM in test [1] and in test [2] were at least 75% and 50 to 75%, respectively. For the same molecule, the “PARP cleavage % Inhibition” value in test [3] is “A (A is ≧75% inhibition)”.

For the molecule `N#C/C(=C\c1cccc(Br)n1)C(=O)NC1(c2ccccc2)CCC1` [Compound 3, (E)-3-(6-Bromopyridin-2-yl)-2-cyano-N-(1-phenylcyclobutyl)acrylamide], the inhibition at 5 µM in test [1] and in test [2] was under 25% in each case. For the same molecule, the “PARP cleavage % Inhibition” value in test [3] is given as “B (B is 50% to 75% inhibition)”.

Consider `N#C/C(=C\c1cccc(Br)n1)C(=O)NC1(c2cccnc2)CCCC1` [Compound 3-1, (E)-3-(6-bromopyridin-2-yl)-2-cyano-N-(1-(pyridin-3-yl)cyclopentyl) acrylamide], for which the inhibition at 5 µM in test [1] and in test [2] was under 25% throughout. Also, the “PARP cleavage % Inhibition” value in test [3] is reported as “B (B is 50% to 75% inhibition)”.

Consider `N#C/C(=C\c1cccc(Br)n1)C(=O)NC1(c2ccncc2)CCCC1` [Compound 3-2, (E)-3-(6-bromopyridin-2-yl)-2-cyano-N-(1-(pyridin-4-yl)cyclopentyl) acrylamide], for which the inhibition at 5 µM in test [1] was 50 to 75%; in test [2], 25 to 50%. In test [3], the “PARP cleavage % Inhibition” value is “A (A is ≧75% inhibition)”.

As to `N#C/C(=C\c1ncc(Br)cc1Br)C(=O)NC1(c2ccncc2)CCCC1` [Compound 3-3, (E)-2-cyano-3-(3,5-dibromopyridin-2-yl)-N-(1-(pyridin-4-yl)cyclopentyl)acrylamide], the inhibition at 5 µM was at least 75% in test [1] and 50 to 75% in test [2]. The “PARP cleavage % Inhibition” value in test [3] is “A (A is ≧75% inhibition)”.

As for `N#C/C(=C\c1cccc(C#CCn2cccn2)n1)C(=O)NC1(c2ccncc2)CCCC1` [Compound 3-4, (E)-3-(6-(3-(1H-pyrazol-1-yl)prop-1-yn-1-yl)pyridin-2-yl)-2-cyano-N-(1-(pyridin-4-yl)cyclopentyl)acrylamide], the inhibition at 5 µM in test [1] and in test [2] was under 25% in each case. The “PARP cleavage % Inhibition” value in test [3] is given as “B (B is 50% to 75% inhibition)”.

Turning to `N#C/C(=C\c1cccc(C#CC2(O)CCCC2)n1)C(=O)NC1(c2ccncc2)CCCC1` [Compound 3-5], the inhibition at 5 µM in test [1] and in test [2] was under 25% each time. Moreover, the “PARP cleavage % Inhibition” value in test [3] is reported as “D (D is <25% inhibition)”.

For `N#C/C(=C\c1cccc(Br)n1)C(=O)NC1(c2ccnc(Cl)c2)CCCC1` [Compound 3-6, (E)-3-(6-bromopyridin-2-yl)-N-(1-(2-chloropyridin-4-yl)cyclopentyl)-2-cyanoacrylamide], the inhibition at 5 µM in test [1] and in test [2] was 50 to 75% throughout. Besides, the “PARP cleavage % Inhibition” value in test [3] was “A (A is ≧75% inhibition)”.

On to `N#C/C(=C\c1cccc(Br)n1)C(=O)NC1(c2ccnc(F)c2)CCCC1` [Compound 3-7, (E)-3-(6-bromopyridin-2-yl)-2-cyano-N-(1-(2-fluoropyridin-4-yl)cyclopentyl)acrylamide], for which the inhibition at 5 µM in test [1] is under 25%; in test [2], 25 to 50%. In test [3], the “PARP cleavage % Inhibition” value is listed as “B (B is 50% to 75% inhibition)”.

As for `N#C/C(=C\c1ncc(Br)cc1Br)C(=O)NC1(c2ccccc2)CCCC1` [Compound 4, (E)-3-(3,5-Dibromopyridin-2-yl)-2-cyano-N-(1-phenylcyclopentyl)acrylamide], the inhibition at 5 µM in test [1] and in test [2] was at least 75% throughout. In test [3], the “PARP cleavage % Inhibition” value was “A (A is ≧75% inhibition)”.

As for `N#C/C(=C\c1ncc(Cl)cc1F)C(=O)NC1(c2ccccc2)CCCC1` [Compound 5, (E)-3-(3-Fluoro-5-chloropyridin-2-yl)-2-cyano-N-(1-phenylcyclopentyl)acrylamide], the inhibition at 5 µM in test [1] and in test [2] was at least 75% in each case. For the same molecule, the “PARP cleavage % Inhibition” value in test [3] was “A (A is ≧75% inhibition)”.

Turning to `N#C/C(=C\c1nc(Br)ccc1F)C(=O)NC1(c2ccccc2)CCCC1` [Compound 6, (E)-3-(3-Fluoro-6-bromopyridin-2-yl)-2-cyano-N-(1-phenylcyclopentyl)acrylamide], the inhibition at 5 µM in test [1] and in test [2] was at least 75% throughout. Besides, the “PARP cleavage % Inhibition” value in test [3] is “A (A is ≧75% inhibition)”.

`N#C/C(=C\c1nc(Cl)ccc1Cl)C(=O)NC1(c2ccccc2)CCCC1` [Compound 7, (E)-3-(3,6-Dichloropyridin-2-yl)-2-cyano-N-(1-phenylcyclopentyl)acrylamide]: the inhibition at 5 µM in test [1] is at least 75%; in test [2] it was 50 to 75%. Further, the “PARP cleavage % Inhibition” value in test [3] is reported as “A (A is ≧75% inhibition)”.

For `N#C/C(=C\c1ncccc1F)C(=O)NC1(c2ccccc2)CCCC1` [Compound 8, (E)-3-(3-Fluoropyridin-2-yl)-2-cyano-N-(1-phenylcyclopentyl)acrylamide], the inhibition at 5 µM in test [1] and in test [2] was under 25% each time. In addition, the “PARP cleavage % Inhibition” value in test [3] is listed as “D (D is <25% inhibition)”.

In the case of `N#C/C(=C\c1ncc(Br)cc1F)C(=O)NC1(c2ccccc2)CCCC1` [Compound 9, (E)-3-(5-Bromo-3-fluoropyridin-2-yl)-2-cyano-N-(1-phenylcyclopentyl)acrylamide], the inhibition at 5 µM in test [1] and in test [2] was at least 75% throughout. Moreover, the “PARP cleavage % Inhibition” value in test [3] is recorded as “A (A is ≧75% inhibition)”.

For `N#C/C(=C\c1nc(Cl)ccc1Br)C(=O)NC1(c2ccccc2)CCCC1` [Compound 10, (E)-3-(3-Bromo-6-chloropyridin-2-yl)-2-cyano-N-(1-phenylcyclopentyl)acrylamide], the results for the inhibition at 5 µM in test [1] and in test [2] were at least 75% and 50 to 75%, respectively. Besides, the “PARP cleavage % Inhibition” value in test [3] is “B (B is 50% to 75% inhibition)”.

On to `N#C/C(=C\c1ccc(Cl)c(Cl)c1)C(=O)NC1(c2ccccc2)CCCC1` [Compound 11, (E)-3-(3,4-Dichlorophenyl)-2-cyano-N-(1-phenylcyclopentyl)acrylamide], for which the inhibition at 5 µM in test [1] and in test [2] was 25 to 50% throughout. In addition, the “PARP cleavage % Inhibition” value in test [3] was “B (B is 50% to 75% inhibition)”.

Consider `N#C/C(=C\c1ccc(Cl)c(F)c1)C(=O)NC1(c2ccccc2)CCCC1` [Compound 12, (E)-3-(4-Chloro-3-fluorophenyl)-2-cyano-N-(1-phenylcyclopentyl)acrylamide], for which the inhibition at 5 µM in test [1] is under 25%; in test [2], 25 to 50%. Further, in test [3], the “PARP cleavage % Inhibition” value was “C (C is 25% to 50% inhibition)”.
